# Source: ChEMBL document CHEMBL6120987, “Identification of inhibitors targeting the FLT3-ITD mutation through 4D-QSAR, in vitro, and in silico” (Eur J Med Chem, 2025)
# Key:
# [1] = target: T1, Receptor-type tyrosine-protein kinase FLT3 (Homo sapiens, UniProt P36888, ITD); assay: Inhibition of FLT3-ITD mutant (unknown origin)
# MOLM-13 = assay: Antiproliferative activity against FLT3-dependent human MOLM-13 cells expressing FLT3 ITD mutant assessed as reduction in cell viability incubated for 72 hrs by luminescence based assay; type: functional; settings: MOLM-13, 72 h
# [2] = target: T1, Receptor-type tyrosine-protein kinase FLT3; assay: Inhibition of FLT3-ITD mutant (unknown origin) using biotin-tagged TK substrate preincubated for 10 mins followed by substrate and ATP addition and measured after 40 mins by ADP-Glo Kinase Assay
# T1 sequence (P36888 whole entry, looked up, stated change not applied): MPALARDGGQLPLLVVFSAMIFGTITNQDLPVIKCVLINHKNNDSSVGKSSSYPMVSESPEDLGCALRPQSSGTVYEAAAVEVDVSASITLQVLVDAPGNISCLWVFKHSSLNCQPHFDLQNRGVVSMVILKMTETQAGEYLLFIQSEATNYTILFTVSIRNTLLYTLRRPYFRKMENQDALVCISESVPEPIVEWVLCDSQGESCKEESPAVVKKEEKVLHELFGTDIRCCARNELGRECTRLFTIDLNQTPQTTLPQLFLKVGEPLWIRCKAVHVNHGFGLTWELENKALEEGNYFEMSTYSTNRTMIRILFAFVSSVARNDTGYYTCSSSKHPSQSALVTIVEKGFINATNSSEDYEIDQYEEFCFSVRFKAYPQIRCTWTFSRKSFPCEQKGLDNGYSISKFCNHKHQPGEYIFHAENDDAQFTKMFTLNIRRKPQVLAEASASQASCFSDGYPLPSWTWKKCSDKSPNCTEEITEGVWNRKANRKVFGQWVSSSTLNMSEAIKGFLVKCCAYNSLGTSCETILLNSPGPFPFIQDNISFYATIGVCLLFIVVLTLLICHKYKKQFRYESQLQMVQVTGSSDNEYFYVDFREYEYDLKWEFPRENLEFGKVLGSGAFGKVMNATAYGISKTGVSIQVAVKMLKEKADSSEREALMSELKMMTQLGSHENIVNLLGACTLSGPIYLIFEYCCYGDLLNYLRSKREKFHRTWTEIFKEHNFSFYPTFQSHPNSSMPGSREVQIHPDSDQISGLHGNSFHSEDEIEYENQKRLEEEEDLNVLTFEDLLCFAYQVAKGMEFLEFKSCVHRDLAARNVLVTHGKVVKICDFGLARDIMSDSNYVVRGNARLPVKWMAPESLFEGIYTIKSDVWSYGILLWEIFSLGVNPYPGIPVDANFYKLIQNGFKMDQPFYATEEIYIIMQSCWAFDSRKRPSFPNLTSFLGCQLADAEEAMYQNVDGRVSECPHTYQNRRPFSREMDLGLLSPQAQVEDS
Compound,IC50 [1] [nM],IC50 (MOLM-13) [nM],IC50 [2] [nM]
CCCCCCCC/C=C\CCCCCCCC(=O)O [OLEIC ACID],511,,
CCc1nc(C(N)=O)c(Nc2ccc(N3CCC(N4CCN(C(=O)C5c6ccccc6-c6ccccc65)CC4)CC3)c(OC)c2)nc1NC1CCOCC1,,154,
CCc1nc(C(N)=O)c(Nc2ccc(N3CCN(C(=O)C4c5ccccc5-c5ccccc54)CC3)c(OC)c2)nc1NC1CCOCC1,,142,
CCc1nc(C(N)=O)c(Nc2ccc(N3CCC(N4CCN(C)CC4)CC3)c(OC)c2)nc1NC1CCOCC1 [GILTERITINIB],,22.4,
CCCCCCCC/C=C\CCCCCCCC(=O)N1CCN(c2ccc(Nc3nc(NC4CCOCC4)c(CC)nc3C(N)=O)cc2OC)CC1,,2440,
CCCCCCCC/C=C\CCCCCCCC(=O)N1CCN(C2CCN(c3ccc(Nc4nc(NC5CCOCC5)c(CC)nc4C(N)=O)cc3OC)CC2)CC1,,> 10000,
CCc1nc(C(N)=O)c(Nc2ccc(N3CCN(C(=O)C4CC5C=CC4C5)CC3)c(OC)c2)nc1NC1CCOCC1 (stereo not given),,63.4,1.29
CCc1nc(C(N)=O)c(Nc2ccc(N3CCN(C(=O)OC(C)(C)C)CC3)c(OC)c2)nc1NC1CCOCC1,370,,
CCc1nc(C(N)=O)c(Nc2ccc(N3CCC(NC(=O)C45CC6CC(CC(C6)C4)C5)CC3)c(OC)c2)nc1NC1CCOCC1,,992,
CCc1nc(C(N)=O)c(Nc2ccc(N3CCC(N4CCN(C(=O)C56C7C8C5C5C6C7C85C(=O)OC)CC4)CC3)c(OC)c2)nc1NC1CCOCC1 (stereo not given),,25.6,2.12
CC(C)(C)OC(=O)N1CCNCC1,560,,
CCc1nc(C(N)=O)c(Nc2ccc(N3CCC(N4CCN(C(=O)C56CC7CC(CC(C7)C5)C6)CC4)CC3)c(OC)c2)nc1NC1CCOCC1,,188,
CCc1nc(C(N)=O)c(Nc2ccc(N3CCN(C(=O)C45C6C7C4C4C5C6C74C(=O)OC)CC3)c(OC)c2)nc1NC1CCOCC1 (stereo not given),,111,
COc1cc(N)ccc1N1CCC(N2CCN(C(=O)OC(C)(C)C)CC2)CC1,511,,
CCc1nc(C(N)=O)c(Nc2ccc(N3CCC(NC(=O)C4c5ccccc5-c5ccccc54)CC3)c(OC)c2)nc1NC1CCOCC1,,147,
CCc1nc(C(N)=O)c(Nc2ccc(N3CCN(C(=O)C45CC6CC(CC(C6)C4)C5)CC3)c(OC)c2)nc1NC1CCOCC1,,1340,
CCc1nc(C(N)=O)c(Nc2ccc(N3CCC(NC(=O)C4CC5C=CC4C5)CC3)c(OC)c2)nc1NC1CCOCC1 (stereo not given),,55,3.06
CCCCCCCC/C=C\CCCCCCCC(=O)NC1CCN(c2ccc(Nc3nc(NC4CCOCC4)c(CC)nc3C(N)=O)cc2OC)CC1,,745,
CCc1nc(C(N)=O)c(Nc2ccc(N3CCC(NC(=O)C45C6C7C4C4C5C6C74C(=O)OC)CC3)c(OC)c2)nc1NC1CCOCC1 (stereo not given),,87.4,6.1
CCc1nc(C(N)=O)c(Nc2ccc(N3CCC(N4CCN(C(=O)C5CC6C=CC5C6)CC4)CC3)c(OC)c2)nc1NC1CCOCC1 (stereo not given),,54.6,4.83
